The subject of data set [1] is cervical cancer cell lines (SiHa and CaSki). Description: Cell growth of manzamine-related compounds. It counts as cell-based, human. The procedure: (§1) Based on MoIN, the additional manzamine-related compounds such as manzamine D (2), manzamine F (3), 8-hydroxymanzamine A (4), and ircinal A (5) were tested for their biological activities targeting cervical cancer cell lines (SiHa and CaSki).
Cell Growth Kinetics. Cervical cancer cells (1×10^6) or HKc (2×10^5) were plated in 100 mm tissue culture petri dish or 6-well plates. Following overnight incubation, cells were treated with 2 μM or 4 μM concentrations of manzamine A (1) derivatives for different time points (24, 48 and 72 hours). Dimethyl sulphoxide (DMSO) was used as control. The cell proliferation activity was determined by cell counting under the microscope with a hemocytometer using trypan blue staining.

Data set [2] concerns normal human keratinocytes (HKc). Nature of the data set: Cell growth kinetics of normal keratinocytes. The class given is cell-based. As to conditions: 4 μM stated for compound 4; 48 h and 72 h; vs DMSO control. The procedure:
as §1
Generation of Normal Human Keratinocytes (HKc). The generation and processing of normal HKc from de-identified foreskin tissue samples has previously been described in our studies, see Pirisi, L.; Yasumoto, S.; Feller, M.; Doniger, J.; DiPaolo, J. A. J. Virol. 1987, 61, 1061-1066, and was implemented with the following modifications: dispase was used in lieu of collagenase, and a trypsinization step was added to release the epidermal cells. Briefly, to generate normal HKc primary cultures, the foreskin tissue, free of subcutaneous tissue, was placed in 10% dispase in phosphate buffer saline (PBS) and incubated overnight at 37° C. The next day, the epidermis was separated from the dermis, and processed mechanically by shredding the tissue into smaller pieces that were then treated with Trypsin/EDTA for 10 minutes at 37° C. Following the addition of fetal bovine serum (10%) to stop the trypsin action, cells were collected by centrifugation and plated in keratinocytes serum free medium (KSFM).
Cell Growth Kinetics. […] The cell proliferation activity was determined by cell counting under the microscope with a hemocytometer using trypan blue staining.

Consider four compounds from patent US12023330B2, “Use of manzamines as antiproliferative agent” (priority 2020, dated 2024).

Consider `O=C1CCCN2[C@@H](CC1)C[C@]13CN4CCCC/C=C\CC[C@](O)(C=C(c5nccc6c5[nH]c5c(O)cccc56)C1CC4)[C@H]23` (some centres unmarked) [manzamine F], for which the “effect on cervical cancer cell growth” value in data set [1] is listed as “did not reveal any effect”.

For the compound `O=CC1=C[C@@]2(O)CC/C=C\CCCCN3CC[C@@H]1[C@]1(CC4/C=C\CCCCN4[C@H]12)C3` (some centres unmarked) [ircinal A], the “effect on cervical cancer cell growth” value in data set [1] was “did not reveal any effect”.

Turning to `Oc1cccc2c1[nH]c1c(C3=C[C@@]4(O)CC/C=C\CCCCN5CC[C@@H]3[C@]3(C[C@@H]6/C=C\CCCCN6[C@H]34)C5)nccc12` [8-hydroxymanzamine A], in data set [2], the “cell growth kinetics of normal HKc” value was “inhibited significantly”. The “effect on cervical cancer cell growth” value in data set [1] is given as “showed inhibition”.

As for `O[C@]12C=C(C3NCCc4c3[nH]c3ccccc43)[C@@H]3CCN(CCCC/C=C\CC1)C[C@@]31C[C@@H]3/C=C\CCCCN3[C@H]12` (some centres unmarked) [manzamine D], the “effect on cervical cancer cell growth” value in data set [1] is listed as “did not reveal any effect”.
